{"source": "the NIST ThermoML archive (doi:10.1016/j.fluid.2017.09.007)", "key": {"[1]": {"details": "Crystal; DTA"}, "[2]": {"experiment": "Molar enthalpy of transition or fusion", "details": "Crystal; DSC"}}, "note": "Numbers after ± are expanded uncertainties.", "data": [{"compound": "C[C@]12CCC(=O)C=C1CC[C@@H]1[C@@H]2[C@@H](O)C[C@@]2(C)[C@H]1CC[C@]2(O)C(=O)CO", "note": "[11β,17α,21-trihydroxypregn-4-ene-3,20-dione]", "values": [{"measurement": "Normal melting temperature", "setting": "[1]", "result": "221.60 ± 1.1", "unit": "°C"}, {"measurement": "Molar enthalpy of transition or fusion", "setting": "[2]", "result": "9.15 ± 0.311", "unit": "kcal/mol"}]}]}
